Experiments:
[1] = test system: MCF7 cells; assay: ASNS and CHOP mRNA by RT-PCR as readout for amino acid deprivation; type: cell-based, human
Method: FIGS. 6A to 6C. Effects of SLC6A14 blockade with α-MT in breast cancer cells. In FIG. 6A, MCF10A (a non-malignant mammary epithelial cell line), MCF7 (an ER-positive breast cancer cell line), and MB231 (an ER-negative breast cancer cell line) cells were treated with or without 2.5 mM α-MT for 24, 48, or 72 h and then used for analysis of asparagine synthetase (ASNS) and CHOP mRNA levels. In FIG. 6B, MCF7, MB231 and MCF10A cells were treated with or without 2.5 mM α-MT for 48 h and then used for immunocytochemical analysis of the constitutively expressed LC-3. In FIG. 6C, MCF7 cells were treated with (“b” and “c”) or without (“a”) α-MT (2.5 mM) for 48 h and then used for electron microscopy. Arrows indicate sequestration of cytoplasm and organelles in pre-autophagosomes and autophagosome, and the asterisk indicates condensed chromatin. N, nucleus. FIGS. 8A and 8B. Influence of α-MT on ASNS and CHOP mRNA levels in control MCF7 cells and in MCF7 cells with shRNA-induced silencing of SLC6A14. In FIG. 8A, five different SLC6A14-specific shRNAs were tested in MCF7 cells using a lentivirus-based system to monitor their efficacy to silence SLC6A14. SLC6A14 mRNA levels were measured by RT-PCR with GAPDH as an internal control. c, control. In FIG. 8B, SLC6A14 was silenced in MCF7 cells with shRNA-4 using a lentivirus-based system and then treated without or with α-MT (2.5 mM, 48 h). RNA isolated from the cells was then used for RT-PCR to monitor the levels of asparagine synthetase (ASNS) and CHOP mRNAs. FIG. 11. Estrogen-dependent suppression of the efficacy of α-MT to induce ASNS and CHOP expression in MCF7 cells. MCF7 cells were cultured in a phenol red-free medium in the absence or presence of estradiol (E2, 10 nM) for 24 h and then treated without or with α-MT (2.5 mM, 24 h). The cells were then used for analysis of SLC6A14, asparagine synthetase (ASNS), and CHOP mRNA levels by RT-PCR. Hypoxanthine/guanine phosphoribosyltransferase-1 (HPRT1) mRNA levels were used as an internal control. RT-PCR. Total RNA was isolated using TRIZOL™ (Invitrogen). 2 μg of RNA was reverse transcribed using the GeneAmp PCR System (Applied Biosystems, Branchburg, N.J.). PCR reaction was performed under optimal conditions specific for each of the primer pairs. GAPDH (glyceraldehyde-3-phosphate dehydrogenase) or HPRT1 (hypoxanthine/guanine phosphoribosyl transferase-1) were used as internal controls. PCR products were size-fractionated on agarose gel, stained with ethidium bromide and imaged using Alpha Imager (Santa Clara, Calif.). Densitometry was performed on PCR bands and normalized to the internal control. Normalized values were used to compare mRNA levels of target genes. Primers used for PCR were as follows.

[2] = test system: MB231 cells; assay: Analysis of autophagy (LC3 localization); type: cell-based, human; settings: MB231, α-MT 2.5 mM, 48 h
Method: FIGS. 6A to 6C. Effects of SLC6A14 blockade with α-MT in breast cancer cells. In FIG. 6A, MCF10A (a non-malignant mammary epithelial cell line), MCF7 (an ER-positive breast cancer cell line), and MB231 (an ER-negative breast cancer cell line) cells were treated with or without 2.5 mM α-MT for 24, 48, or 72 h and then used for analysis of asparagine synthetase (ASNS) and CHOP mRNA levels. In FIG. 6B, MCF7, MB231 and MCF10A cells were treated with or without 2.5 mM α-MT for 48 h and then used for immunocytochemical analysis of the constitutively expressed LC-3. In FIG. 6C, MCF7 cells were treated with (“b” and “c”) or without (“a”) α-MT (2.5 mM) for 48 h and then used for electron microscopy. […]
Analysis of autophagy. Autophagy was analyzed as described previously (Periyasamy-Thandavan et al., 2010, Autophagy; 6:19-35; and Samaddar et al., 2008, Mol Cancer Ther; 7:2977-2987) by monitoring the localization pattern of constitutively expressed LC3 as well as that of ectopically expressed GFP-LC3. […] At the end of the treatment, cells were fixed with 4% paraformaldehyde and examined by fluorescence microscopy to count the number of cells with punctate GFP-LC3. Autophagosomal proteolysis was quantified as described previously (Periyasamy-Thandavan et al., 2010, Autophagy; 6:19-35). […]

[3] = Measurement of α-MT in mouse plasma by HPLC; type: in vivo, Balb/c nude mice; settings: mice, two weeks of administration in drinking water (2 mg/ml)
Method: FIGS. 10A to 10D. In vivo efficacy of α-MT in the treatment of ER-positive breast cancer. ZR75.1 (FIG. 10A), MCF7 (FIG. 10B), and MB-231 (FIG. 10C) cells were injected subcutaneously (sc) into Balb/c nude mice (10×10^6 cells per injection site). For MCF7 cells, slow-releasing estrogen pellets were implanted to support the tumor growth. For each cell line, the control group received water with sucrose and the treatment group received α-MT (2 mg/ml) in water with sucrose. Tumor size was measured periodically. NS, not statistically significant (p>0.05); *, p<0.005; two-tailed unpaired Student's t test. In FIG. 10D, Balb/c nude mice were divided into two groups; the control group received water with sucrose and the treatment group received α-MT (2 mg/ml) in water with sucrose for 2 weeks. Mice were then bled and α-MT in plasma was determined by HPLC.
Measurement of α-MT in mouse plasma. Balb/c nude mice were divided into two groups; the control group received water with sucrose and the treatment group received α-MT (2 mg/ml) in water with sucrose for 2 weeks. Mice were then bled and α-MT in plasma was determined by HPLC as described by Laich et al (Laich et al., 2002, Clin Chem; 48:579-581).

Compound: CC(N)(Cc1c[nH]c2ccccc12)C(=O)O (racemic) [α-MT, α-methyl-DL-tryptophan]
- levels of asparagine synthetase mRNA and CHOP mRNA ([1]; MCF7, α-MT 2.5 mM, 24, 48 or 72 h): increased
- α-MT-induced increase of asparagine synthetase and CHOP expression ([1]; MCF7 cells transfected with vector carrying shRNA #4 (SLC6A14 silenced), α-MT 2.5 mM, 48 h): markedly attenuated
- magnitude of α-MT-induced asparagine synthetase and CHOP expression ([1]; MCF7 cells treated with estradiol 10 nM, phenol red-free medium, α-MT 2.5 mM, 24 h): significantly reduced
- expression levels of asparagine synthetase and CHOP ([1]; MCF7 control cells transfected with empty vector, α-MT 2.5 mM, 48 h): increased
- expression of asparagine synthetase and CHOP ([1]; MCF7 control cells, phenol red-free medium, absence of estradiol, α-MT 2.5 mM, 24 h): induced the expression
- autophagy (LC3 localization) [2]: did not undergo autophagy
- plasma concentration of α-MT [3]: 8.5 ± 0.5 µM
